Results as given in the supplement of paper PMC10307832.

Tests used:
Assay in all cases: relative viability (nuclei count vs DMSO), 5 days (fraction); higher = more cells survive
[1] = compound: C#Cc1cccc(Nc2ncnc3cc(OC)c(OCCCCCCC(=O)NO)cc23)c1 [CUDC-101] + CS(=O)(=O)N1CCN(Cc2cc3nc(-c4cccc5[nH]ncc45)nc(N4CCOCC4)c3s2)CC1 [Pictilisib] (partner 1 µM)
Outline: (§1)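 Lung cancer cell lines were pin-tool dosed in 1536-well plates on the day after seeding, with either a lone drug or a fixed anchor-drug dose plus five library-drug doses (not always all listed) in √10 steps. Nuclei were counted on 4× images after 5 days. Relative viability is the ratio of treated-well to vehicle-well nuclei counts, with each value a median of duplicate plates.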

[2] = compound: C#Cc1cccc(Nc2ncnc3cc(OC)c(OCCCCCCC(=O)NO)cc23)c1 [CUDC-101] + CC(=O)Nc1cccc(-n2c(=O)n(C3CC3)c(=O)c3c(Nc4ccc(I)cc4F)n(C)c(=O)c(C)c32)c1 [Trametinib] (partner 0.02 µM)
Outline: as §1

[3] = compound: C1=CC=C2C(=C1)N=C(S2)C(C#N)C3=NC(=NC=C3)NCCC4=CN=CC=C4 + Nc1ncn([C@H]2C[C@H](O)[C@@H](CO)O2)c(=O)n1 [Decitabine] (partner 2 µM)
Outline: as §1

[4] = compound: COc1cc2/c(=N/c3ccc(Br)cc3F)nc[nH]c2cc1OCC1CCN(C)CC1 [Vandetanib] + CS(=O)(=O)N1CCN(Cc2cc3nc(-c4cccc5[nH]ncc45)nc(N4CCOCC4)c3s2)CC1 [Pictilisib] (partner 1 µM)
Outline: as §1

Cell Line	relative viability ([1]; first compound 0.01 µM)	relative viability ([1]; first compound 0.03162 µM)	relative viability ([1]; first compound 0.1 µM)	relative viability ([1]; first compound 0.3162 µM)	relative viability ([1]; first compound 1 µM)	relative viability ([2]; first compound 0.01 µM)	relative viability ([2]; first compound 0.03162 µM)	relative viability ([2]; first compound 0.1 µM)	relative viability ([2]; first compound 0.3162 µM)	relative viability ([2]; first compound 1 µM)	relative viability ([3]; first compound 0.005 µM)	relative viability ([3]; first compound 0.01581 µM)	relative viability ([3]; first compound 0.05 µM)	relative viability ([3]; first compound 0.1581 µM)	relative viability ([3]; first compound 0.5 µM)	relative viability ([4]; first compound 0.02 µM)	relative viability ([4]; first compound 0.06325 µM)	relative viability ([4]; first compound 0.2 µM)	relative viability ([4]; first compound 0.6325 µM)	relative viability ([4]; first compound 2 µM)
NCI-H2347	0.711	0.658	0.794	0.436	0.569	0.285	0.264	0.278	0.294	0.259	0.638	0.634	0.556	0.683	0.654	0.849	0.601	0.571	0.462	0.788
NCI-H2405	0.462	0.419	0.642	0.624	0.336	0.682	0.558	0.658	0.779	0.551	0.658	0.771	0.737	0.689	0.725	0.535	0.264	0.44	0.45	0.222
NCI-H3122	0.539	0.57	0.692	0.73	0.54	0.201	0.224	0.198	0.243	0.228	0.333	0.394	0.492	0.577	0.441	0.668	0.603	0.58	0.61	0.601
PC-3 [JPC-3]	0.756	0.632	0.277	0.348	0.245	0.608	0.519	0.494	0.455	0.323	0.952		0.758	0.825	0.762	0.725	0.709	0.622	0.423	0.359
PC-14	0.936	0.562	0.215	0.173	0.0519	0.928	0.605	0.619	0.233	0.0423	0.207	0.246	0.178	0.203	0.179	0.676	0.594	0.35	0.0812	0.0658
RERF-LC-KJ	0.465	0.518	0.511	0.485	0.376	0.908	0.955	0.865	0.775	0.672	0.621	0.773	0.682	0.785	0.606	0.583	0.543	0.577	0.448	0.394
SK-LU-1	0.703	0.597	0.628	0.427	0.381	0.475	0.439	0.551	0.663	0.456	0.496	0.762	0.68	0.727	0.558	0.657	0.43	0.509	0.663	0.532
SK-MES-1	0.356	0.34	0.317	0.256	0.184	0.488	0.488	0.493	0.431	0.319	0.48	0.405	0.372	0.409	0.41	0.379	0.294	0.319	0.259	0.22
SW 1573	0.582	0.507	0.587	0.532	0.313	0.638	0.5	0.599	0.592	0.392	0.36	0.497	0.252	0.436	0.504	0.545	0.534	0.552	0.436	0.407
